What follows are compounds tested against p45 v-abl tyrosine kinase (assay: Exogenous Substrate Kinase Assay: p45 v-abl kinase inhibition). Conditions: (Val^5)-Angiotensin II phosphorylation; 40 ng abl-kinase; peptide 2 mM, ATP 50 μM; pH 8.0, 30° C.; triplicate determinations.
Assay type: biochemical, Abelson murine leukemia virus
From the text: Tyrosine kinase purification. The enzyme used in our test was the p45 v-abl tyrosine kinase which represents the catalytic domaine of the Abelson tyrosine kinase (isolated from the Abelson murine leukemia virus). The p45 v-abl kinase was produced and isolated as described by Wang et al. in J. Biol. Chem. 260, 64 (1985) and by Ferguson et al. in J. Biol. Chem. 260, 3652 (1985) and in Biochem. J. 257, 321 (1989).
Exogenous Substrate Kinase Assay. (Val^5)-Angiotensin II phosphorylation was performed by incubation with 40 ng of purified abl-kinase and (γ-^32 P)-ATP, in 50 μl of buffer containing Tris-HCl 25 mM, pH 8.0, MgCl2 10 mM and dithiothreitol 0.1 mM (kinase buffer). The reaction mixture was incubated for the indicated time at 30° C. and the reaction stopped by adding 50 μl of 5% trichloroacetic acid. After a brief incubation on ice, tubes were centrifuged. The supernatants were spotted on phosphocellulose paper squares (Whatman P-81) and washed extensively in acetic acid. The radioactivity bound to dried phosphocellulose squares was measured in a liquid scintillation counter. IC50 values were calculated from triplicate determinations of each experimental point. Each inhibitor was tested at concentrations ranging from […] in the presence of fixed concentrations of peptide (2 mM) and ATP (50 μM).
`O=C1NC(=O)c2ccccc2C1=Cc1ccnc2ccccc12` [4-(4'-quinolyl)methylenehomophthalimide, (E,Z) -4-(4'-quinolyl)-methylenehomophthalimide] showed an IC50 of 15 µM.
With `O=S1(=O)Nc2ccccc2C1=Cc1c[nH]c2ccccc12` [(E,Z)-3-(3'-indolyl)methylene-2,1-benzisothiazoline-2,2-dioxide] the IC50 was 113 µM.
`O=S1(=O)Nc2ccccc2C1=Cc1ccc(O)cc1` [(E,Z)-3-(4'-hydroxyphenyl)methylene-2,1-benzisothiazoline-2,2-dioxide] was tested, and the IC50 was 17 µM.
In the case of `O=C1NC(=O)c2ccccc2C1=Cc1ccc(O)cc1` [(E,Z)-4-(4'-hydroxyphenyl)methylenehomophthalimide], the IC50 is reported as 5 µM.

From patent US5639884A, “Arylidene-heterocyclic derivatives and process for their preparation” (Farmitalia Carlo Erba S.r.l., priority 1991, dated 1997)
